One test deals with HEK293 cells. The test is described as follows: Luminescent cytotoxicity assay, HEK293 cells transfected with GRIN1 and GRIN2A or GRIN2B. It is filed as cell-based, human. The conditions noted are these: compound added 6 h after transfection; cell death 48 h after transfection. The procedure: HEK293 cells were cultured in Dulbecco's Modified Eagle Medium (DMEM, Gibco™ 41965-039) supplement with 10% Fetal Bovine Serum (FBS, Gibco™, 10270), 1% Sodium Pyruvate (Gibco™, 11360070), 1% MEM NEAA (GibcoT^M, 11140035) and 0.5% Penicillin-Streptomycin (P-S; Sigma, P0781) and Passagel5-25 were used for experiments.
To test the cytotoxicity of compounds according to the present invention, HEK293 cells (70-80% confluent) were transfected 24 hours after plating with both GRIN1 and GRIN2 Å or GRIN2B, respectively (1:[…]) with Lipofectamine 2000 according to manufacturer's instructions. The relative number of dead cells in the population at the indicated time points after transfection was measured with the CytoTox-Glo™ Cytotoxicity assay (Promega, G9290) according to manufacturer's instruction with minor modification. Briefly, 10% of total medium were mixed with 10 μL AAF-amino luciferin to reach a final volume at 200 μL with water, the dead cell relative luminescence units (DRLU) was measured by GloMax (Promega) in a 96 well white bottom polystyrene microplate (Corning Costar®, 3912). After all the measurements, lysis reagents have been added to the cells and 10% of lysate was used for the total cell relative luminescence units (TRLU) measurement. Cell death was calculated by the following equations: […]
For drug testing, P4, P8, P9, P13 and P15 were added to the medium at indicated concentration 6 h after transfection. DRLU, TRLU and cell death were measured and calculated 48 h after transfection.

The test system of test [1] is primary mouse hippocampal neurons. The test is described as follows: NMDA induced cell death (excitotoxicity) in cultured primary neurons. The conditions noted are these: polypeptide expressed via rAAV infection on DIV3, NMDA 20 μM for 10 min, cell death assessed 24 h later. In kind it is cell-based. The procedure:
Primary mouse hippocampal and cortical neurons were prepared and maintained as known. Briefly, hippocampi or cerebral cortex from P0 C57Bl/6NCrl mice were dissociated and plated at a density of 1.2*105/cm^2 in Growth Medium (GM), consisting of Neurobasal A medium (Gibco™, 10888022), 2% serum free B27™ Supplement (Gibco™, 17504044), 1% rat serum (Biowest, S2150), 0.5 mM L-Glutamine (Sigma, G7513) and 0.5% P-S. Cytosine β-D-arabinofuranoside (AraC; Sigma, C1768; 2.8 μM) was added on DIV3 to prevent the proliferation of glial cells. From DIV8, half of the medium was replaced by GM without Rat serum every 48 h until being used for experiments. 24 h before experiments, GM was replaced with transfection medium (10 mM HEPES, pH 7.4, 114 mM NaCl, 26.1 mM NaHCO3, 5.3 mM KCl, 1 mM MgCl2, 2 mM CaCl2, 30 mM glucose, 1 mM glycine, 0.5 mM C3H3NaO3, and 0.001% phenol red and 10% of phosphate-free Eagle's minimum essential medium, supplemented with 7.5 µg/ml insulin, 7.5 µg/ml transferrin and 7.5 ng/ml sodium selenite (ITS Liquid Media Supplement, Sigma-Aldrich Cat #I3146)). Primary hippocampal neurons were used in live cell imaging, cell death experiments, while cortical neurons were used for mRNA and protein extraction analysis.
All viral particles were produced and purified as known in the art. All TRPM4 derived peptides (comprising SEQ ID NO:5, or any of SEQ ID NO:46 to SEQ ID NO:56) were cloned into rAAV backbone by PCR. shRNA against mouse TRPM4 were designed by BLOCK-iT™ RNAi Designer from Thermofisher to target: […] (SEQ ID NO:44, shTRPM4-1) and […] (SEQ ID NO:45, shTRPM4-2). Scramble shRNA (shSCR) has been tested and proven to have no known targets in mice. GPI anchor ([…], e.g. used in SEQ ID NO:53) sequences were synthesized by Eurofins Genomics (Ebersberg, Germany). All primers were synthesized and all plasmids were confirmed by sequencing by Eurofins Genomics.
In order to investigate the role of TRPM4 in NMDA receptor mediated excitotoxicity, the inventors used RNA interference strategies to knock down TRPM4. Cultured primary mouse hippocampus neurons were infected on day 3 in vitro (DIV3) with recombinant adeno-associated viruses (rAAVs) providing for expression of a scramble control (shSCR), shTRPM4-1 (SEQ ID NO:44) or shTRPM4-2 (SEQ ID NO:45). On DIV15-16, neurons were challenged with N-methyl-D-aspartate (NMDA, 20 μM) for 10 min. After NMDA wash out, neurons were kept in the culture medium for another 24 h before analysis. […] Evidently, TRPM4 is thus involved in the process of NMDA receptor mediated excitotoxicity.
In a next step, the inventors tried to identify regions in the mouse TRPM4 protein potentially involved in NMDA receptor mediated excitotoxicity. For this purpose, polypeptide fragments of mouse TRPM4 protein were generated and their impact on NMDA induced excitotoxicity analysed. To do so, primary neuron cultures were infected with respective rAAVs on DIV3, challenged with NMDA (20 μM) for 10 min on DIV17 and cell death assessed 24 hours later.
The sequence of SEQ ID NO:5 in TRPM4 is located in vivo just beneath the plasma membrane. […] To test this hypothesis, the inventors created a fusion protein comprising SEQ ID NO:5 and a GPI anchor, SEQ ID NO:57. The sequence of the fusion is given in SEQ ID NO:53. Neurons infected with rAAV and expressing SEQ ID NO:47 (control) or SEQ ID NO:53 were exposed to NMDA (20 μM) for 10 min on DIV15-16, with cell death assessed after 24 h.
In a next step, the inventors created a mutant of SEQ ID NO:5, in which two adjacent phenylalanine residues where substituted by tyrosine residues (SEQ ID NO: 54). […] TRPM5 is a protein related to but nonetheless distinct to TRPM4. The region in TRPM5 corresponding to SEQ ID NO:5, SEQ ID NO:55, shares only about 60% sequence identity with SEQ ID NO:5. Neurons were infected on DIV3 with rAAVs expressing SEQ ID NO: 5, SEQ ID NO: 54 or SEQ ID NO:55 and exposed to NMDA (20 μM) for 10 min on DIV17, with cell death assessed 24 h later. […]

For test [2] the test system is unchanged. As to the kind of experiment: NMDA receptor induced mitochondrial membrane potential breakdown (Rh123 imaging). In kind it is cell-based. The conditions noted are these: polypeptides expressed via rAAV; bath application of 20 μM NMDA. The procedure: Coverslips with primary cultured neurons (DIV15-DIV17) were used to examine mitochondrial membrane potential (Ψm) and mitochondrial calcium signalling, which was performed at room temperature in CO2-independent culture medium (CICM) containing: 10 mM HEPES, 140 mM NaCl, 2.5 mM KCl, 1.0 mM MgCl2, 2.0 mM CaCl2, 1.0 mM Glycine, 35.6 mM Glucose and 0.5 mM Na-pyruvate. All images were obtained by a cooled-CCD camera (iXon 887, Andor) on an upright microscope (BX51WI, Olympus). Fluorescence excitation was provided by a xenon arc lamp in combination with an excitation filter wheel (MT-20, Olympus). Data were collected using Cell^R software (Olympus), analysed using ImageJ and quantified using Igor Pro (WaveMetrics). Ψm was detected with the small molecule fluorescence indicator Rhodamine 123 (Rh123; Molecular Probe™, R302). Primary cultured neurons were loaded with 4.3 μM Rh123 in CICM at 37° C. for 30 min, then washed and left in CICM for another 30 min before recording. At the end of each experiment, the mitochondrial uncoupler FCCP (5 μM, Sigma-Aldrich, Cat #C2920) was applied to the cells to reach the maximal Rh123 fluorescence intensity. Rh123 was imaged with 470±20 nm excitation and 525±25 nm emission wavelengths using a 20× objective. Rh123 fluorescence intensity was measured in the nucleus to minimize contamination from cytosolic mitochondrial signal and Rh123 fluorescence intensity was normalized to the maximum FCCP signal for each region of interest.
Mitochondrial dysfunction is a hallmark of NMDA receptor excitotoxicity and an early event en-route to neuronal death. A parameter that is often used to assess mitochondrial integrity is the mitochondrial membrane potential. A breakdown of the mitochondrial membrane potential can be observed after exposure of hippocampal or cortical neurons to NMDA and indicates excitotoxicity-associated mitochondrial dysfunction. Therefore, the inventors investigated the effect of polypeptides comprising the sequence of SEQ ID NO:5 or SEQ ID NO: 54 as well as of the control TRMP5 sequence (SEQ ID NO: 55) on mitochondrial membrane potential break down in primary mouse hippocampal neurons. Excitotoxicity leading to mitochondrial membrane potential break down was induced with bath application of 20 μM NMDA. After 11 minutes, the mitochondrial uncoupler, carbonylcyanide-p-trifluoromethoxyphenylhydrazone (FCCP) was added. Addition of FCCP leads to break-down of the mitochondrial membrane potential and served as a control of the test system.

The subject of another test is NMDA receptor. As to the kind of experiment: NMDA-induced calcium transients (Fura2 calcium imaging). It is filed as cell-based, mouse. As to conditions: hippocampal neurons, 6 min NMDA (20 μM) application. The protocol: In a further experiment, the impact of P4 and P15 on NMDA-induced calcium transients was assessed. Briefly, for calcium imaging, primary hippocampal neurons on coverslips were loaded with the cell-permeable, high-affinity ratiometric calcium indicator Fura2-AM (Invitrogen™ F1221), at 1 μM in CO2-independent culture medium (CICM; CICM contains: 10 mM HEPES, 140 mM NaCl, 2.5 mM KCl, 1.0 mM MgCl2, 2.0 mM CaCl2, 1.0 mM Glycine, 35.6 mM Glucose and 0.5 mM Na-pyruvate) for 30 min at 37° C., then washed and left in CICM for another 30 min to allow for de-esterification. Fura2 was excited at 340/11 nm and 380/11 nm, and fluorescence emission was obtained from a 40× UV compatible objective (LUMPLFLN, Olympus) through a 510/20 nm emission filter. For quantification, ImageJ was used to calculate average background-subtracted fluorescence intensities for 340 and 380 nm excitation (F340 and F380) from each neuron. Intracellular calcium levels were plotted as F340/F380 ratios over time, from which the NMDA response amplitude and area under the curve (AUC) was calculated to quantify NMDA-induced calcium influx.

In test [3] the test system is primary mouse hippocampal neurons. The test is described as follows: NMDA induced cell death (excitotoxicity) in cultured primary neurons. It is filed as cell-based. As to conditions: neurons incubated 1 h with 1 or 10 μg fusion protein before NMDA 20 μM 10 min; cell death 24 h later.

Take `CNCC1CCN(C(=O)c2ccc(-n3cnc4ccccc43)cc2)CC1` [P8]: in the test on HEK293 cells, the “NMDA receptor induced cell death” value is “reduced the level of NMDA receptor induced cell death”. Same read-out and setting: as for `O=C(NCc1ccc(CN2CCC(O)CC2)cc1)C1CC(F)(F)CN1` (centres unmarked) [P9], the entry is “reduced the level of NMDA receptor induced cell death”.

Consider `CC1(CN)CCN(CC(=O)Nc2cc(Cl)ccc2Cl)C1` (centres unmarked) [P13], for which the “NMDA receptor induced cell death” value in the test on HEK293 cells is reported as “reduced the level of NMDA receptor induced cell death”.

Turning to “SEQ ID NO:55: corresponding region of mouse TRPM5, about 60% sequence identity with SEQ ID NO:5, negative control (NSEDRAFALLVRRNHSWSRTTCLHLATEADAKAFFAHDGVQAFLTKIWWGDMATGTP; listed as Mus musculus) [reference compound]”, the entries for the “protection against NMDA induced cell death (neuroprotective effect)” value in test [1] and in test [1] (listed as SEQ ID NO: 55) were “not capable of reducing NMDA receptor-mediated cell toxicity” and “did not reduce NMDA receptor-mediated cell toxicity”, respectively. The “NMDA receptor induced mitochondrial membrane potential breakdown” value in test [2] is “not capable of preventing NMDA receptor induced mitochondrial membrane potential breakdown”. On to MK-801 maleate [reference compound], for which, in the test with NMDA receptor, the NMDA-induced calcium transients entry is given as “completely blocked”.

B1: SEQ ID NO:56: fusion protein of SEQ ID NO:5 and protein transduction domain TAT (SEQ ID NO:42) (protein)
chain: RKKRRQRRRSQPNSEERAARLLLRRCPLWGEATCLQLAMQADARAFFAQDGVQSLLTQKWWGEMDSTTP
modifications: Fusion protein composed of TAT peptide and SEQ ID NO: 5
Turning to B1, the “protection against NMDA excitotoxicity (cell death)” value in test [3] is reported as “protected neurons from NMDA excitotoxicity”.
